Values of other authors, collected in PubChem BioAssay AID1259409 (Chemical Carcinogenesis Research Information System (CCRIS), 2018).

Test system: rodent chemically induced tumor inhibition, incidence and multiplicity
Experiment: CCRIS tumor inhibitor studies
Conditions: Dose [Inhibitor]: 0, Route [Inhibitor]: SUBCUTANEOUS, Species: RAT

Q: What does the source list for `CCCCCN(CCCCC)C(=O)C(CCC(=O)O)NC(=O)c1ccc(Cl)c(Cl)c1` (stereo not drawn)?
A: tumour outcome (control, treated, inhibition, significance) (Carcinogen: 7,12-DIMETHYLBENZ[A]ANTHRACENE, 57-97-6, 12 MG/KG 2/D FOR 15 D POST CARCINOGEN TREATMENT (STUDY DURATION: 6 MO), Strain/Sex: SPRAGUE-DAWLEY/MALE, Target Tissue: Type of Lesion: PANCREAS: CARCINOMA, Dose [Carcinogen]: 2-3 MG ONCE, Promoter: CAERULEIN, 17650-98-5): 11/15 (73%), 7/15 (47%), 36%, p<0.02; tumour outcome (control, treated, inhibition, significance) (Carcinogen: AZASERINE, 115-02-6, 12 MG/KG BW 1/D 3 D/WK FOR 8 MO BEGINNING 4 MO POST FIRST CARCINOGEN DOSE (STUDY DURATION: 8 MO), Strain/Sex: WISTAR/MALE, Target Tissue: Type of Lesion: PANCREAS: TUMOR, Dose [Carcinogen]: 30 MG/KG ON DAYS 19, 26, AND 54 OF AGE, Promoter: CHOLECYSTOKININ, 9011-97-6): 19/34 (56%), 15/35 (43%), 23%, not significant; tumour outcome (control, treated, inhibition, significance) (Carcinogen: AZASERINE, 115-02-6, 12 MG/KG BW 1/D 30 MIN PRIOR TO PROMOTER DOSE 3 D/WK FOR 8 MO BEGINNING 4 MO POST FIRST CARCINOGEN DOSE (STUDY DURATI, Strain/Sex: WISTAR/MALE, Target Tissue: Type of Lesion: PANCREAS: TUMOR, Dose [Carcinogen]: 30 MG/KG ON DAYS 19, 26, AND 54 OF AGE, Promoter: BOMBESIN, 31362-50-2): 28/37 (76%), 18/32 (56%), 26%, not significant
